Molecules are shown by their SMILES.

We go through 36 compounds from ChEMBL document CHEMBL3228009, “Hypobetalipoproteinemic agents. 2. Compounds related to 4-(1-adamantyloxy)aniline” (J Med Chem, 1979).

The test system of series [1] is Rattus norvegicus. Kind of series: Hypobetalipoproteinemic activity in diet-induced hypercholesteremic rat model assessed as decrease in total serum cholesterol at 50 mg/kg, po relative to control. The class given is functional.
Series [2] is filed under the species Rattus norvegicus. Kind of series: Selectivity ratio of T/C for heparin precipitating lipoproteins to T/C for total serum cholesterol in diet-induced hypercholesteremic rat model. In kind it is functional.
In series [3] the test system is Rattus norvegicus. As to the kind of experiment: Toxicity in diet-induced hypercholesteremic rat model assessed as increase in body weight at 50 mg/kg, po relative to control. In kind it is organism-based. Further details: dose 50 mg/kg, route oral. The settings on record: in vivo.
Series [4] concerns Rattus norvegicus. As to the kind of experiment: Hypobetalipoproteinemic activity in diet-induced hypercholesteremic rat model assessed as decrease in heparin precipitating lipoproteins at 50 mg/kg, po relative to control. The class given is functional.
For series [5], the system named is Rattus norvegicus. Kind of series: Toxicity in diet-induced hypercholesteremic rat model assessed as increase in food intake at 50 mg/kg, po relative to control. In kind it is organism-based. Also noted: dose 50 mg/kg, route oral. The settings on record: in vivo.

Regarding `Nc1ccc(OC23CCC(CC2)CC3)cc1`, the results for the T/C in series [1] and in series [4] were 0.8 and 0.72, respectively. In series [2], the Selectivity ratio was determined as 0.9. In addition, the Activity was more than 63% in series [3] and more than 73% in series [5].

For `Nc1ccc(OC23CC4CC(CC(C4)C2)C3)cc1`, the results for the T/C in series [1] and in series [4] were 0.54 and 0.35, respectively. For the same compound, in series [2], the Selectivity ratio amounted to 0.65. For the same compound, the Activity in series [3] is more than 63%; in series [5], more than 73%.

For the compound `O=CNc1ccc(OC23CC4CC(CC(C4)C2)C3)cc1`, the T/C in series [1] was found to be 0.71; in series [4], 0.78. Moreover, in series [2], the Selectivity ratio amounted to 1.09. Moreover, the Activity is reported as more than 63% in series [3] and more than 73% in series [5].

`CCOC(=O)Nc1ccc(OC23CC4CC(CC(C4)C2)C3)cc1`: the T/C in series [1] is listed as 0.57; in series [4], 0.42. Moreover, the Selectivity ratio in series [2] came out at 0.74. The Activity in series [3] is reported as more than 63%; in series [5], more than 73%.

On to `CC(=O)Nc1ccc(OC23CC4CC(CC(C4)C2)C3)cc1`, for which the T/C in series [1] came to 0.66; in series [4] it was 0.5. Further, in series [2], the Selectivity ratio was 0.76. Also, the Activity is listed as more than 63% in series [3] and more than 73% in series [5].

Regarding `CS(=O)(=O)Nc1ccc(OC23CC4CC(CC(C4)C2)C3)cc1`, the T/C is 1.51 in series [1] and 1.3 in series [4]. For the same compound, the Selectivity ratio in series [2] turned out to be 0.85. In addition, the Activity in series [3] is on record as more than 63%; in series [5], more than 73%.

With `CNC(=O)Nc1ccc(OC23CC4CC(CC(C4)C2)C3)cc1`, the results for the T/C in series [1] and in series [4] were 1.06 and 0.96, respectively. Also, in series [2], the Selectivity ratio is listed as 0.91. Moreover, the Activity is reported as more than 63% in series [3] and more than 73% in series [5].

Consider `O=C(Nc1ccccc1)Nc1ccc(OC23CC4CC(CC(C4)C2)C3)cc1`, for which the T/C in series [1] turned out to be 1.18; in series [4], 1.23. In series [2], the Selectivity ratio was 1.05. Further, the Activity in series [3] is listed as more than 63%; in series [5], more than 73%.

On to `S=C(Nc1ccc(OC23CC4CC(CC(C4)C2)C3)cc1)NC12CC3CC(CC(C3)C1)C2`, for which the T/C in series [1] turned out to be 0.88; in series [4], 0.91. The Selectivity ratio in series [2] came to 1.03. For the same compound, the Activity is recorded as more than 63% in series [3] and more than 73% in series [5].

Turning to `CNc1ccc(OC23CC4CC(CC(C4)C2)C3)cc1.Cl`, the T/C in series [1] worked out at 0.52; in series [4], 0.32. The Selectivity ratio in series [2] stood at 0.63. For the same compound, the values for the Activity in series [3] and in series [5] were more than 63% and more than 73%, respectively.

On to `CCNc1ccc(OC23CC4CC(CC(C4)C2)C3)cc1.Cl`, for which the T/C is given as 0.49 in series [1] and 0.36 in series [4]. Also, the Selectivity ratio in series [2] came out at 0.72. In addition, the Activity in series [3] is given as more than 63%; in series [5], more than 73%.

Take `c1cc(N2CCCC2)ccc1OC12CC3CC(CC(C3)C1)C2`: the T/C in series [1] is 0.65; in series [4] it was 0.52. The Selectivity ratio in series [2] came to 0.8. In addition, the Activity in series [3] is on record as more than 63%; in series [5], more than 73%.

As for `c1cc(N2CCCCC2)ccc1OC12CC3CC(CC(C3)C1)C2`, the results for the T/C in series [1] and in series [4] were 0.44 and 0.25, respectively. The Selectivity ratio in series [2] was 0.58. Besides, the Activity in series [3] was more than 63%; in series [5] it was more than 73%.

`c1cc(N2CCOCC2)ccc1OC12CC3CC(CC(C3)C1)C2`: the T/C in series [1] was 0.92; in series [4], 0.87. In addition, the Selectivity ratio in series [2] is listed as 0.94. For the same compound, the Activity in series [3] was more than 63%; in series [5] it was more than 73%.

`C#CCN(C)c1ccc(OC23CC4CC(CC(C4)C2)C3)cc1.Cl`: the T/C in series [1] amounted to 0.57; in series [4], 0.6. In series [2], the Selectivity ratio was determined as 1.05. For the same compound, the Activity in series [3] is given as more than 63%; in series [5] it was more than 73%.

Turning to `CN(CCO)c1ccc(OC23CC4CC(CC(C4)C2)C3)cc1`, the values for the T/C in series [1] and in series [4] were 0.63 and 0.55, respectively. The Selectivity ratio in series [2] stood at 0.88. Moreover, the Activity is on record as more than 63% in series [3] and more than 73% in series [5].

Turning to `CN(CCN1CCCC1)c1ccc(OC23CC4CC(CC(C4)C2)C3)cc1.Cl`, the values for the T/C in series [1] and in series [4] were 1.26 and 1.22, respectively. Further, the Selectivity ratio in series [2] is listed as 0.97. Further, the Activity in series [3] is on record as more than 63%; in series [5], more than 73%.

Take `CN(C)CCCN(C)c1ccc(OC23CC4CC(CC(C4)C2)C3)cc1.Cl`: the T/C in series [1] is 0.98; in series [4] it was 0.99. For the same compound, the Selectivity ratio in series [2] is recorded as 1.01. The Activity was more than 63% in series [3] and more than 73% in series [5].

As for `CN(C=O)c1ccc(OC23CC4CC(CC(C4)C2)C3)cc1`, the T/C is recorded as 0.51 in series [1] and 0.36 in series [4]. For the same compound, the Selectivity ratio in series [2] was 0.72. The figures for the Activity in series [3] and in series [5] were more than 63% and more than 73%, respectively.

Take `CN(C)c1ccc(OC23CC4CC(CC(C4)C2)C3)cc1.Cl`: the T/C in series [1] is listed as 0.46; in series [4] it was 0.34. In addition, the Selectivity ratio in series [2] is 0.73. Moreover, the results for the Activity in series [3] and in series [5] were more than 63% and more than 73%, respectively.

As to `CN(CCc1ccccc1)c1ccc(OC23CC4CC(CC(C4)C2)C3)cc1.Cl`, the T/C in series [1] amounted to 1.09; in series [4], 1.07. Further, the Selectivity ratio in series [2] is 0.98. Further, the Activity in series [3] is recorded as more than 63%; in series [5], more than 73%.

For `CN(CCOc1ccccc1)c1ccc(OC23CC4CC(CC(C4)C2)C3)cc1`, the T/C in series [1] was found to be 1.03; in series [4] it was 1.06. Moreover, the Selectivity ratio in series [2] came to 1.03. For the same compound, the Activity is given as more than 63% in series [3] and more than 73% in series [5].

Consider `CCCCCCCCN(C)c1ccc(OC23CC4CC(CC(C4)C2)C3)cc1.Cl`, for which the T/C in series [1] came to 1.15; in series [4] it was 1.04. Moreover, the Selectivity ratio in series [2] was determined as 0.91. For the same compound, the results for the Activity in series [3] and in series [5] were more than 63% and more than 73%, respectively.

For the compound `Cc1cc(N)ccc1OC12CC3CC(CC(C3)C1)C2.Cl`, the T/C in series [1] turned out to be 0.52; in series [4], 0.31. In addition, in series [2], the Selectivity ratio came out at 0.6. In addition, the figures for the Activity in series [3] and in series [5] were less than 63% and more than 73%, respectively.

As to `Nc1ccc(OC23CC4CC(CC(C4)C2)C3)c(F)c1`, the T/C came to 0.57 in series [1] and 0.52 in series [4]. Also, the Selectivity ratio in series [2] came out at 0.92. Further, the Activity in series [3] is listed as more than 63%; in series [5], more than 73%.

Consider `CC(=O)Nc1ccc(OC23CC4CC(CC(C4)C2)C3)c(F)c1`, for which the T/C in series [1] is recorded as 1.15; in series [4] it was 1.07. For the same compound, in series [2], the Selectivity ratio came out at 0.93. The Activity in series [3] is more than 63%; in series [5] it was more than 73%.

Regarding `Fc1cc(N2CCCC2)ccc1OC12CC3CC(CC(C3)C1)C2`, the T/C in series [1] was determined as 0.8; in series [4], 0.82. Also, the Selectivity ratio in series [2] was 1.02. The Activity in series [3] is listed as more than 63%; in series [5] it was more than 73%.

As for `Nc1ccc(OC23CC4CC(CC(C4)C2)C3)cc1F`, the T/C was 0.35 in series [1] and 0.24 in series [4]. For the same compound, the Selectivity ratio in series [2] is recorded as 0.68. Further, the Activity is given as more than 63% in series [3] and more than 73% in series [5].

Turning to `CC(=O)Nc1ccc(OC23CC4CC(CC(C4)C2)C3)cc1F`, the T/C in series [1] was found to be 0.62; in series [4] it was 0.35. Also, the Selectivity ratio in series [2] came to 0.55. Further, the Activity in series [3] is on record as more than 63%; in series [5] it was more than 73%.

For the compound `Fc1cc(OC23CC4CC(CC(C4)C2)C3)ccc1N1CCCC1`, the values for the T/C in series [1] and in series [4] were 0.58 and 0.3, respectively. Also, the Selectivity ratio in series [2] is reported as 0.51. The Activity in series [3] is given as more than 63%; in series [5], more than 73%.

As to `Cl.Nc1ccc(OC23CC4CC(CC(C4)C2)C3)c(Cl)c1`, the T/C is reported as 0.63 in series [1] and 0.43 in series [4]. Moreover, the Selectivity ratio in series [2] is listed as 0.68. Moreover, the figures for the Activity in series [3] and in series [5] were more than 63% and more than 73%, respectively.

In the case of `Clc1cc(N2CCCC2)ccc1OC12CC3CC(CC(C3)C1)C2`, the T/C in series [1] came out at 1.08; in series [4], 1.07. In addition, in series [2], the Selectivity ratio stood at 0.98. Besides, the Activity is more than 63% in series [3] and more than 73% in series [5].

With `Cc1cc(N)cc(C)c1OC12CC3CC(CC(C3)C1)C2.Cl`, the T/C is on record as 0.86 in series [1] and 0.8 in series [4]. The Selectivity ratio in series [2] is listed as 0.93. In addition, the Activity in series [3] is more than 63%; in series [5], more than 73%.

`Cc1cc(N2CCCC2)cc(C)c1OC12CC3CC(CC(C3)C1)C2`: the T/C turned out to be 0.81 in series [1] and 0.78 in series [4]. Besides, in series [2], the Selectivity ratio was found to be 0.96. Moreover, the Activity is more than 63% in series [3] and more than 73% in series [5].

In the case of `CSCc1cc(OC23CC4CC(CC(C4)C2)C3)ccc1N`, the T/C in series [1] was 0.49; in series [4], 0.38. In addition, the Selectivity ratio in series [2] stood at 0.76. Moreover, the Activity in series [3] was more than 63%; in series [5], more than 73%.

With `Cc1cc(OC23CC4CC(CC(C4)C2)C3)ccc1N`, the T/C in series [1] turned out to be 0.64; in series [4], 0.25. In series [2], the Selectivity ratio is recorded as 0.38. In addition, the Activity was less than 63% in series [3] and less than 73% in series [5].
